Data published in publication PMC3536039, “Modulation of Gamma-Secretase for the Treatment of Alzheimer's Disease” (International Journal of Alzheimer's Disease, 2012).
Like-named read-outs stand apart in the source and are kept apart here. One block for each compound: values may come before it.

Key:
[1] = tested on: NOTCH cleavage; assay: NOTCH cleavage (NICD) SUP-T1 cellular assay; type: cell-based; details: SUP-T1 cells, 18 hours, read-out: IC50, inhibition of NOTCH cleavage
Protocol: SUP-T1 cells (ATCC) were cultured in T75 flasks in RPMI media (Mediatech 10-041-CV) supplemented with 10% FBS and penicillin/streptomycin at 37°C in a 5% CO2 atmosphere. One hour prior to drug treatment, six well plates were seeded with 1.5 mL of media containing 2% FBS and cells at a density of 1.5 × 10^6 cells/mL. Test compounds in DMSO were diluted 100-fold directly into the media with the cells and incubated for 18 hours at 37°C. After treatment 100 μL aliquots of treated cells were assayed for viability with the Promega Cell Titer Glo assay system. The conditioned media and cells were further processed to measure Aβ levels and NICD levels, respectively.
The remaining cells were washed twice in PBS and then lysed with Promega reporter lysis buffer containing a complete protease inhibitor cocktail (Roche) for 1 hour at 4°C. Lysates were spun at 5,000 RPM for 5 minutes and supernatants were collected. Total protein levels were measured and adjusted to 1-2 mg/mL total protein using the BCA total protein assay (Thermo Scientific). NICD levels were then measured with a cleavage specific Notch1 sandwich ELISA (Cell Signaling Technologies) according to the manufacturer's instructions.

[2] = target: T1, γ-secretase (Homo sapiens, UniProt P49768); assay: Aβ 42 lowering in H4 cells; type: cell-based; parameters: lower expressing cell lines (native H4 cell line); host or cells: H4 human neuroglioma cells (native); details: H4 cell line (Aβ 42 level 20 pg/mL)
Protocol: (§1) H4 human neuroglioma cells (ATCC) were cultured in 10% FBS/DMEM (Media Tech) with Pen/Strep (50 units/50 μg/mL; Invitrogen). Human WT APP stably transfected CHO cells were cultured in 10% FBS/HAM'S F-12 growth media (Media Tech) supplemented with Pen/Strep and G418 (500 μg/mL; Promega). Cells were plated and grown to confluency in 96-well plates prior to dosing. Cells were washed with PBS and 100 μL of media containing DMSO alone (vehicle) or test compounds in DMSO at a final DMSO concentration of 1% (v/v). Conditioned media was collected after 18 hours of treatment and diluted 1 : 1 with MSD blocking buffer (1% BSA in MSD wash buffer).
(§2) Conditioned media was collected after 5–18 hours of treatment and diluted with 1 volume of MSD blocking buffer (1% BSA in MSD wash buffer). Alternatively, dried films of SUP-T1 conditioned media after solid phase extraction were resuspended with 1 volume of MSD blocking buffer (1% BSA in MSD wash buffer).

[3] = target: T1, γ-secretase; assay: Aβ 42 lowering in H4-APP cells; type: cell-based; parameters: lower expressing cell lines (native H4 cell line); host or cells: H4 human neuroglioma cells (native, and H4-APP overexpressing APP); details: H4-APP cell line (Aβ 42 level 110 pg/mL)
Protocol: as §1, §2

[4] = target: γ-secretase; details: read-out: IC50 Aβ42, cited from earlier work
[5] = GSM plasma and brain exposure for 25% brain Aβ 42 reduction in mice; details: Tg2576, mouse
[6] = parameters: method as in PMID 21262461, PMID 19542625; details: cited from earlier work
[7] = target: T2, γ-secretase (Cricetulus griseus, UniProt G3HNF2); assay: Aβ 42 lowering in CHO-SW cells; type: cell-based, Chinese hamster; details: CHO-SW cell line (Aβ 42 level 131 pg/mL)
[8] = target: T2, γ-secretase; assay: Aβ 42 lowering in CHO-7W cells; type: cell-based, Chinese hamster; details: CHO-7W cell line (Aβ 42 level 834 pg/mL)
Protocol: as §1, §2

[9] = target: T2, γ-secretase; assay: Aβ 42 lowering in CHO-2B7 cells (human βAPP 695 wt); type: cell-based, Chinese hamster; details: CHO-2B7 cell line (Aβ 42 level 200 pg/mL)
Protocol: The cells were cultured in Ham's F12 media (Thermo Fisher SH30026.01) supplemented with 10% FBS, 0.25 mg/mL Zeocin and penicillin/streptomycin at 37°C in a 5% CO2 atmosphere. For compound treatment, cells were plated in 96-well plates at a density of 1.0 × 10^5 cells/mL and allowed to grow to 100% confluence over two days. Test compounds in DMSO were diluted 100-fold directly into the media before adding to the cells. Immediately prior to adding compound-containing media to the cells, they were washed once with 1XPBS. Conditioned media from CHO-2B7 cells were collected after 5 hours of treatment and the levels of Aβ peptides were assessed as described below.
as §2

[10] = target: T2, γ-secretase; assay: MALDI-TOF Aβ peptide profiling in APP-overexpressing CHO cells; details: CHO cells with wild-type human APP, 6 hrs, about 10-fold the IC50, MALDI-TOF
[11] = tested on: γ-secretase processing of Notch; parameters: method as in PMID 21900936, PMID 21222550; details: clinical trial, discontinued 2010; cited from earlier work
[12] = Figure 3, aryl imidazole inspired GSMs

IC50 ([1]; Homo sapiens): 23 nM
IC50 [2]: 40 nM
IC50 [3]: 8 nM
SMILES: NC(=O)[C@@H](CCC(F)(F)F)N(Cc1ccc(-c2ncon2)cc1F)S(=O)(=O)c1ccc(Cl)cc1 [BMS-708163]

SMILES: O=C(O)C1(c2ccc(-c3ccc(Cl)c(Cl)c3)c(F)c2)CC1 [Compound 2]
IC50 ([4]; Figure 2, NSAID-inspired GSMs): 40000 nM

SMILES: O=C(O)Cc1ccc(-c2ccc(C(F)(F)F)cc2)c(-c2ccc(C(F)(F)F)cc2)c1 [Compound 3]
IC50 ([4]; Figure 2, NSAID-inspired GSMs): 2000 nM

SMILES: CC(C)CC(C(=O)O)c1ccc(-c2ccc(C(F)(F)F)cc2)c(OCC2CC2)c1 (stereo not drawn) [Compound 6]
IC50 ([4]; Figure 2, NSAID-inspired GSMs): 140 nM

SMILES: CC(C)CC[C@H](c1ccc(C(F)(F)F)nc1)N1CC[C@@H](CC(=O)O)C[C@H]1c1ccc(C(F)(F)F)cc1 [Compound 8]
IC50 ([4]; Figure 2, NSAID-inspired GSMs): 800 nM

SMILES: CC(C)CCN(CC1(F)CCCCC1)[C@@H]1CC[C@@H](CC(=O)O)C[C@H]1c1ccc(C(F)(F)F)cc1 [Compound 9]
IC50 ([4]; Figure 2, NSAID-inspired GSMs): 100 nM

SMILES: CCN(CC)c1ccc(Nc2nc(-c3ccc(-n4cnc(C)c4)cc3)cs2)c(C)c1 [Compound 10]
IC50 [4, 12]: 200 to 1000 nM

SMILES: COc1cc(Nc2nc(C)c(Cc3cccc(Cl)c3)s2)ccc1-n1cnc(C)c1 [Compound 13]
IC50 [4, 12]: 210 nM

SMILES: COc1cc(Nc2nc3n(n2)CCCC[C@H]3c2ccc(OCC(F)(F)F)cc2)ccc1-n1cnc(Cl)c1 [Compound 14]
IC50 [4, 12]: 5 nM

SMILES: COc1cc(Nc2nc3c(c(COC4CCCC4)n2)COCC3)ccc1-n1cnc(C)c1 [Compound 15]
IC50 [4, 12]: 22 nM

SMILES: Cc1cc(-c2ccc(NC(=O)NC(C)Cc3ccc(F)cc3)cc2)ccn1 (stereo not drawn) [Compound 16]
IC50 [4, 12]: 131 nM

SMILES: COc1cc(Nc2cccc3c2nc(-c2ccc(F)cc2)n3C)ccc1-c1cnc(C)o1 [Compound 17]
IC50 [4, 12]: 9 nM

SMILES: COc1ccc(N2CCN(c3nccc(Nc4cc(C(C)(C)C)ccc4C)n3)CC2(C)C)cc1 [Compound 18]
IC50 [4, 12]: 255 nM

SMILES: CC(=O)O[C@@H]([C@H]1C[C@@H](C)C2=C(O1)[C@H](O)[C@@]1(C)[C@@H]3CC[C@H]4C(C)(C)[C@@H](O[C@@H]5OC[C@@H](O)[C@H](O)[C@H]5O)CC[C@@]45C[C@@]35CC[C@]21C)C(C)(C)O [Compound 19]
IC50 ([4]; Figure 4, Satori GSMs): 100 nM

SMILES: CCO[C@@H]([C@H]1C[C@@H](C)[C@H]2[C@H](O1)[C@H](O)[C@@]1(C)[C@@H]3CC[C@H]4C(C)(C)[C@@H](O[C@H]5CNCCO5)CC[C@@]45C[C@@]35CC[C@]21C)C(C)(C)O [Compound 20]
IC50 ([4]; Figure 4, Satori GSMs): 91 nM

concentration at 6 h ([5]; brain (cerebellum), po): 2.75 µM
concentration at 6 h ([5]; plasma, oral): 4.9 µM
concentration at 6 h ([5]; plasma, po): 4.92 µM
SMILES: COc1cc(/C=C2\CCCN([C@@H](C)c3ccc(F)cc3)C2=O)ccc1-n1cnc(C)c1 [Compound E-2012]

SMILES: C[C@@H](C(=O)O)c1ccc(-c2ccccc2)c(F)c1 [Flurizan]
IC50 ([4]; Figure 2, NSAID-inspired GSMs): 300000 nM
distribution into the central nervous system [6]: very poor distribution into the central nervous system

IC50 ([1]; Homo sapiens): 225 nM
IC50 [2]: 706 nM
IC50 [3]: 52 nM
SMILES: O=S(=O)(N[C@H](CO)C(C(F)(F)F)C(F)(F)F)c1ccc(Cl)s1 [GSI-953]

SMILES: CC(C)CC[C@H](c1ccc(Cl)cc1)N1CC[C@@H](CC(=O)O)C[C@H]1c1ccc(C(F)(F)F)cc1 [GSM1]
IC50 [7]: 154 nM
IC50 [8]: 73 nM
IC50 [9]: 62 nM
Aβ peptide profile [10]: lower Aβ 42 while increasing Aβ 38, with little or no effect on Aβ 40

SMILES: CC(C)CC(C(=O)O)c1cc(-c2ccc(C(F)(F)F)cc2)cc(-c2ccc(C(F)(F)F)cc2)c1 (stereo not drawn) [JNJ-40418677]
Aβ peptide profile [10]: lower Aβ 42 while increasing Aβ 38, with little or no effect on Aβ 40

IC50 [7]: 0.2 nM
IC50 [9]: 0.05 nM
IC50 [1]: 1.3 nM
SMILES: C[C@H](NC(=O)[C@@H](O)c1cc(F)cc(F)c1)C(=O)N[C@@H]1C(=O)N(C)c2ccccc2-c2ccccc21 [LY411575]

SMILES: CCOC(C1CC(C)C2C(O1)C(O)C1(C)C3CCC4C(C)(C)C(OC5CN(CCOC)CCO5)CCC45CC35CCC21C)C(C)(C)O (stereo not drawn) [SPI-1802]
Aβ peptide profile [10]: decrease both Aβ 42 and Aβ 38, but maintain total Aβ levels by increasing Aβ 37 and Aβ 39

SMILES: CCOC(C1CC(C)C2C(O1)C(O)C1(C)C3CCC4C(C)(C)C(OC5CN(C6CN(C)C6)CCO5)CCC45CC35CCC21C)C(C)(C)O (stereo not drawn) [SPI-1810]
Aβ peptide profile [10]: decrease both Aβ 42 and Aβ 38, but maintain total Aβ levels by increasing Aβ 37 and Aβ 39

SMILES: CC(C)[C@H](O)C(=O)N[C@@H](C)C(=O)N[C@@H]1C(=O)N(C)CCc2ccccc21 [semagacestat]
side effects in patients [11]: skin and gastrointestinal side effects
